Assay results published in patent publication US20240252410A1, “COMPOUNDS FOR USE IN KERATIN TREATMENT” (CrossChem Limited, priority 2023, published 2024).

Key:
[1] = Hair elongation percentage test; settings: for % Increase in elongation percentage relative to control: control 100% DI water
Method: (§1) Hair tensile strength can be measured according to the following general method. “Test Compound” can be any compound described herein. • 1. Collect about 3 hair strands from tress; • 2. Clamp both ends of a single hair strand and pull taut; • 3. Line up ruler with hair strand and cut a 2.75 cm section; • 4. Repeat steps 2-3 until 30 segments are produced; • 5. Create a specific w/w % solution of deionized water and Test Compound (e.g., Compound (1)) in 50 ml beaker; • 6. Saturate the hair for a specific amount of time in the solution, then remove and dry for 30 minutes; • 7. Using a 4 decimal precision balance, weigh all hairs at once and calculate the average; • 8. Insert hair into the digital force gauge; • 9. Separate the two clamps until the hair has broken into two separate pieces; and • 10. Note the maximum force required to break the hair as well as the distance the digital force gauge has moved.
(§2) Control experiments can also be conducted according to the procedure described above, for example by omitting Test Compound from the solution or replacing Test Compound with compound for comparison (e.g., glycolic acid).

[2] = Hair tensile strength test (digital force gauge); settings: for % Increase in tensile strength relative to control: control 100% DI water
Method: as §1, §2

[3] = Elongation of bleached hair at break stress (Formulation 1); settings: 5 w/w % solution in DI water
Method: A combination formulation (Formulation 1) comprising Compound (1) and glycolic acid as an aqueous mixture was tested. Formulation 1 comprises a 1:1 ratio (by weight) of Compound (1) to glycolic acid. To prepare Formulation 1, a mixture containing 50 w/w % Compound (1) and 50 w/w % glycolic acid (crystalline) was prepared (Mixture A). Mixture A was diluted with deionized (DI) water (aqua) until the solution was 5 w/wt % Mixture A.
Formulation 1 was independently analyzed to determine whether elongation of bleached hair at break stress increased compared to both control and glycolic acid solutions. The glycolic acid solution was a 5 w/w % glycolic acid solution in DI water. The control was DI water alone.

[4] = 1 w/w % solution in deionized water
[5] = 2.5 w/w % solution in deionized water

Row | SMILES | Elongation % [1, 4] [%] | % Increase in elongation percentage relative to control ([1]; 1 w/w % solution) [%] | Elongation % [1, 5] [%] | Elongation percentage of hair compared to glycolic acid (in words) ([1]; 2.5 w/w % solution vs 2.5 w/w % glycolic acid, FIG. 4) | % Increase in elongation percentage relative to control ([1]; 2.5 w/w % solution) [%] | Elongation percentage of hair relative to control (in words) ([1]; control hair treated 100% DI water, FIG. 3) | Tensile strength (Gf/Denier) [2, 4] [gf/denier] | % Increase in tensile strength relative to control ([2]; 1 w/w % solution) [%] | Tensile strength (Gf/Denier) [2, 5] [gf/denier] | Tensile strength of hair compared to glycolic acid (in words) ([2]; 2.5 w/w % solution vs 2.5 w/w % glycolic acid, FIG. 2) | % Increase in tensile strength relative to control ([2]; 2.5 w/w % solution) [%] | Tensile strength of hair relative to control (in words) ([2]; control hair treated 100% DI water, FIG. 1) | Mean Elongation % [3] [%] | Difference from Control (%) ([3]; control DI water)
1 | N[C@@H](CO)C(=O)OCC(=O)O [Compound (1)] | 25.4 | 0.67 | 29.9 | significantly increases elongation percentage of hair | 18.51 | increases elongation percentage of hair | 1.210 | 16.9 | 1.490 | significantly increases tensile strength of hair as compared to glycolic acid | 43.9 | significantly increases tensile strength of hair, relative to control | – | –
2 | O=C(O)CO [Glycolic Acid, glycolic acid, reference compound] | – | – | 26.71 | – | 5.87 | – | – | – | 1.219 | – | 17.8 | – | 55.3 | 7.38
